{"source": "patent US20130178493A1", "about": "“USE OF 14,15-DIHYDRO-20,21-DINOREBURNAMENIN-14-OL FOR THE TREATMENT AND/OR PREVENTION OF SERIOUS DEPRESSION AND SLEEP/WAKING CYCLE DISORDERS” (BIOCORTECH, priority 2004, published 2013)", "key": {"Balb/c mice": {"system": "Balb/c mice", "assay": "REM sleep recovery after sleep deprivation (electroencephalogram records)", "format": "in vivo", "experimental": "(§1) The anatomical data presented in table 1 below were obtained three days after a single injection or after a sequential treatment of five injections at a rate of one injection every three days. Immunopositive cells for tyrosine hydroxylase (TH) and fibres containing noradrenaline were identified by immunocytochemistry in the examined brain areas. Sleep records were made on a group of ten Balb/c mice. The electroencephalogram for each animal was recorded continuously for five days for acquisition of basal data about the wake-sleep cycle. Five animals were then treated by five IP injections every three days starting from day 5 until day 17 of the experiment. The other five animals were injected with the excipient at the same time After the last injection, all mice were deprived of sleep for 6 hours and records went on for another two consecutive days to measure the total REM sleep recovery. The given BC19 dose is 20 mg/kg for each injection, in all these experiments."}, "[1]": {"system": "cells expressing hypocretine in the hypothalamus", "assay": "Number of hypocretine-expressing neurones in hypothalamus after IP injection", "format": "in vivo, Balb/c mice"}, "mice": {"system": "mice", "settings": "mouse, in vivo, iv", "experimental": "Acute toxicity is determined on batches of 10 male and female mice, weighing from 20 to 22 g, fasting since the previous evening.\nThe product is administered intravenously, in solution in physiological saline solution, to which a few drops of hydrochloric acid have been added (products to be tested are then in hydrochloric solution).\nMortality is recorded daily for one week. Values of the lethal doses 50 (LD 50) were determined using the method given by Lichfield J. T. and Wilcoxon F. (J. Pharm. Exp. Therap. 96:99, 1949)."}, "[2]": {"system": "immunopositive neurones for TH in LC", "assay": "Immunocytochemistry of tyrosine hydroxylase immunopositive neurones in locus caeruleus after IP injection", "format": "in vivo, Balb/c mice", "experimental": "as §1"}, "[3]": {"system": "fibres containing noradrenaline in the prefrontal cortex", "assay": "Density of noradrenaline-containing fibres in prefrontal cortex after sequential treatment", "format": "in vivo, Balb/c mice", "experimental": "as §1"}, "[4]": {"settings": "sacrifice 3 days after a single IP injection (20 mg/kg), Balb/c mice"}}, "data": [{"smiles": "OC1CC2CCCN3CCc4c(n1c1ccccc41)C23", "note": "(racemic) [BC19, 14,15-dihydro 20,21-dinoreburnamenin14-ol]", "values": [{"measurement": "activity at 20 mg/kg", "setting": "Balb/c mice; Mus musculus, deprived mice (6 hours sleep deprivation), after five IP injections every three days, 20 mg/kg, Balb/c mice, read-out: Duration of REM sleep during the recovery period, % of controls without sleep deprivation", "value": "151 ± 11", "unit": "%"}, {"measurement": "Duration of REM sleep during the recovery period", "setting": "Balb/c mice; deprived mice (6 hours sleep deprivation), after five IP injections every three days, 20 mg/kg, Balb/c mice", "value": "110 ± 8", "unit": "mn"}, {"measurement": "Effect on recovery of REM sleep after sleep privation (in words)", "setting": "Balb/c mice; injected into Balb/c mice", "value": "reversing the inability of these consanguine mice to recover REM"}, {"measurement": "Effect on hypocretine phenotype in neurones of the hypothalamus (in words)", "setting": "[1]; injected into Balb/c mice", "value": "restoring the hypocretine phenotype in a sub-population of neurones of the hypothalamus"}, {"measurement": "Number of neurones in the posterior third of the group of cells expressing hypocretine in the hypothalamus", "setting": "[1]; [4]", "value": "671 ± 24"}, {"measurement": "Number of neurones in the posterior third of the group of cells expressing hypocretine in the hypothalamus, % of controls", "setting": "[1]; [4]", "value": "(121 ± 4%)"}, {"measurement": "Acute toxicity (mortality, LD 50)", "setting": "mice", "value": "did not demonstrate any toxicity"}, {"measurement": "activity at 20 mg/kg", "setting": "[2]; Mus musculus, 72 h, sacrifice 3 days after a single IP injection (20 mg/kg), Balb/c mice, read-out: Total number of immunopositive neurones for TH in LC, % of controls", "value": 135, "unit": "%"}, {"measurement": "Effect on noradrenergic phenotype in locus caeruleus (in words)", "setting": "[2]; injected into Balb/c mice", "value": "restoring the noradrenergic phenotype in a significant population of locus caeruleus"}, {"measurement": "Total number of immunopositive neurones for TH in LC", "setting": "[2]; [4]", "value": "1228 ± 24"}, {"measurement": "activity at 20 mg/kg", "setting": "[3]; Mus musculus, 72 h, sequential treatment: five IP injections, one every three days, 20 mg/kg, Balb/c mice, read-out: Density of fibres containing noradrenaline in the prefrontal cortex, % of controls", "value": 156, "unit": "%"}, {"measurement": "Effect on noradrenergic innervation in the prefrontal cortex (in words)", "setting": "[3]; injected into Balb/c mice", "value": "restoring noradrenergic innervation in the prefrontal cortex"}, {"measurement": "Density of fibres containing noradrenaline in the prefrontal cortex", "setting": "[3]; sequential treatment: five IP injections, one every three days, 20 mg/kg, Balb/c mice", "value": "0.050 ± 0.003", "unit": "μm/μm^2"}]}]}
